What follows are molecules tested against B-Raf (V600E)-kinase (Homo sapiens (Human), UniProt P15056, V600E) (assay: Kinase test B-RAF (V600E)). Conditions: B-RAF (V600E) kinase test, 250 μM ATP.
Assay type: biochemical
Method: Kinase Test B-RAF (V600E)
In a dilution series 10 μL of test substance solution are placed in a multiwell plate. The dilution series is selected so that generally a range of concentrations of 2 μM to 0.119 nM or 0.017 nM is covered. If necessary the initial concentration of 2 μM is changed to 50 μM, 10 μM or 0.4 μM or 0.2857 μM and further dilution is carried out accordingly. The final concentration of DMSO is 5%. 10 μL of the B-Raf (V600E)-kinase solution are pipetted in (containing 0.5 ng B-Raf (V600E)-kinase in 20 mM Tris-HCl pH 7.5, 0.1 mM EDTA, 0.1 mM EGTA, 0.286 mM sodium orthovanadate, 10% glycerol, 1 mg/mL bovine serum albumin, 1 mM dithiothreitol) and the mixture is incubated for 24 h at RT under with shaking. The kinase reaction is started by the addition of 20 μL ATP solution [final concentration: 250 μM ATP, 30 mM Tris-HCl pH 7.5, 0.02% Brij, 0.2 mM sodium orthovanadate, 10 mM magnesium acetate, 0.1 mM EGTA, phosphatase cocktail (Sigma, # P2850, dilution recommended by the manufacturer), 0.1 mM EGTA] and 10 μL MEK1 solution [containing 50 ng biotinylated MEK1 (prepared from purified MEK1 according to standard procedure, e.g. with EZ-Link Sulpho-NHS-LC-Biotin reagent, Pierce, #21335) and carried out for 60 min at RT with constant shaking. The reaction is stopped by the addition of 12 μL of a 100 mM EDTA solution and incubation is continued for a further 5 min. 55 μL of the reaction solution are transferred into a streptavidin-coated plate (e.g. Streptawell HighBond, Roche, #11989685001) and shaken gently for 1 h at RT, in order to bind biotinylated MEK1 to the plate. After elimination of the liquid the plate is washed five times with 200 μL of 1×PBS and 100 μL solution of primary antibody plus europium-labelled secondary antibody [Anti Phospho-MEK (Ser217/221), Cell Signaling, #9121 and Eu-N1 labeled goat-anti-rabbit antibody, Perkin Elmer, # AD0105], the primary antibody is diluted 1:2000 and the secondary antibody is diluted to 0.4-0.5 μg/mL in Delfia Assay Buffer (Perkin Elmer, #1244-111). After 1 h shaking at RT the solution is poured away and washed five times with 200 μL Delfia Wash Buffer (Perkin Elmer, #4010-0010/#1244-114). After the addition of 200 μL Enhancement Solution (Perkin Elmer, #4001-0010/#1244-105) the mixture is shaken for 10 min at RT and then measured in a Wallac Victor using the program “Delfia Time Resolved Fluorescence (Europium)”. IC50 values are obtained from these dosage-activity curves using a software program (GraphPadPrizm).

Sequence of B-Raf (V600E)-kinase (P15056 whole entry V600E): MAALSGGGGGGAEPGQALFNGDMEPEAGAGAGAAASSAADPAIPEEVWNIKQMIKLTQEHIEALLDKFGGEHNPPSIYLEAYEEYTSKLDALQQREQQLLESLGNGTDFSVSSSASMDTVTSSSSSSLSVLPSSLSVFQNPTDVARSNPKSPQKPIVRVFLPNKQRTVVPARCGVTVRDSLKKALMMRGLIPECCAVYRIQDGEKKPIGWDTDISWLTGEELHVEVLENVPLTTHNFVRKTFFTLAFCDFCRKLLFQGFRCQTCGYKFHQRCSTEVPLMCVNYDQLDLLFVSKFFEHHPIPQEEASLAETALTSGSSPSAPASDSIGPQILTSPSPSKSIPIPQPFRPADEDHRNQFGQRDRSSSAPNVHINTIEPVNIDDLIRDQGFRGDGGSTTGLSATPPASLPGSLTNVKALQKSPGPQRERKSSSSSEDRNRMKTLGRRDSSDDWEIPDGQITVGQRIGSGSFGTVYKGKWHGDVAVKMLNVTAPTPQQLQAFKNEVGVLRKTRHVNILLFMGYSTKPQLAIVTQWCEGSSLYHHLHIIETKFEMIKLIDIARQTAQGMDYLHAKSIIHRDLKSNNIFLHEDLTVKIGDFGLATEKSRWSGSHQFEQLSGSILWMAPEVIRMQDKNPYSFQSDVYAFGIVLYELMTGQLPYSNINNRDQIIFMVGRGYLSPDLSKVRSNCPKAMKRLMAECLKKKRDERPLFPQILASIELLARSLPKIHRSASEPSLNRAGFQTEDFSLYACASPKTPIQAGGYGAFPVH

IC50	Structure (SMILES)
4 nM	COc1ccc(C(=O)Nc2ccc(OC)c(C(F)(F)F)c2)cc1Nc1ncnc2cnc(N(C)CCN(C)C)nc12 [III-18]
1 nM	COc1ccc(C(=O)Nc2ccc(OC)c(C(F)(F)F)c2)cc1Nc1ncnc2cnc(N3CCCCCC3)nc12 [III-19]
3 nM	COc1ccc(C(=O)Nc2ccc(OC)c(C(F)(F)F)c2)cc1Nc1ncnc2cnc(N3CCCN(C)CC3)nc12 [III-20]
3 nM	COc1ccc(C(=O)Nc2ccc(OC)c(C(F)(F)F)c2)cc1Nc1ncnc2cnc(N(C)CCN3CCCC3)nc12 [III-21]
6 nM	COc1ccc(C(=O)Nc2ccc(OC)c(C(F)(F)F)c2)cc1Nc1ncnc2cnc(N3CCN(C)CC3)nc12 [III-22]
7 nM	COc1ccc(C(=O)Nc2ccc(OC)c(C(F)(F)F)c2)cc1Nc1ncnc2cnc(N3CCCCC3)nc12 [III-23]
5 nM	COc1ccc(C(=O)Nc2ccc(OC)c(C(F)(F)F)c2)cc1Nc1ncnc2cnc(NCCCN3CCOCC3)nc12 [III-24]
2 nM	COc1ccc(C(=O)Nc2ccc(OC)c(C(F)(F)F)c2)cc1Nc1ncnc2cnc(N3CCOCC3)nc12 [III-25]
24 nM	COc1ccc(C(=O)Nc2ccc(OC)c(C(F)(F)F)c2)cc1Nc1ncnc2cnc(N3CCCC3)nc12 [III-26]
8 nM	COc1ccc(C(=O)Nc2ccc(OC)c(C(F)(F)F)c2)cc1Nc1ncnc2cnc(NCCN(C)C)nc12 [III-27]
3 nM	COc1ccc(C(=O)Nc2ccc(OC)c(C(F)(F)F)c2)cc1Nc1ncnc2cnc(NCCN3CCOCC3)nc12 [III-28]
2 nM	COc1ccc(C(=O)Nc2ccc(OC)c(C(F)(F)F)c2)cc1Nc1ncnc2cnc(N(C)C)nc12 [III-29]
2 nM	COCCN(C)c1ncc2ncnc(Nc3cc(C(=O)Nc4ccc(OC)c(C(F)(F)F)c4)ccc3F)c2n1 [III-30]
< 1 nM	COc1ccc(NC(=O)c2ccc(F)c(Nc3ncnc4cnc(N(C)CCN(C)C)nc34)c2)cc1C(F)(F)F [III-31]
1 nM	COc1ccc(NC(=O)c2ccc(F)c(Nc3ncnc4cnc(N5CCCCCC5)nc34)c2)cc1C(F)(F)F [III-32]
1 nM	COc1ccc(NC(=O)c2ccc(F)c(Nc3ncnc4cnc(N(C)CCN5CCCC5)nc34)c2)cc1C(F)(F)F [III-33]
2 nM	COc1ccc(NC(=O)c2ccc(F)c(Nc3ncnc4cnc(N5CCN(C)CC5)nc34)c2)cc1C(F)(F)F [III-34]
5 nM	COc1ccc(NC(=O)c2ccc(F)c(Nc3ncnc4cnc(N5CCCCC5)nc34)c2)cc1C(F)(F)F [III-35]
3 nM	COc1ccc(NC(=O)c2ccc(F)c(Nc3ncnc4cnc(NCCCN5CCOCC5)nc34)c2)cc1C(F)(F)F [III-36]
4 nM	COc1ccc(NC(=O)c2ccc(F)c(Nc3ncnc4cnc(N5CCOCC5)nc34)c2)cc1C(F)(F)F [III-37]

IC50	Structure (SMILES)
5 nM	COc1ccc(NC(=O)c2ccc(F)c(Nc3ncnc4cnc(N5CCCC5)nc34)c2)cc1C(F)(F)F [III-38]
2 nM	COc1ccc(NC(=O)c2ccc(F)c(Nc3ncnc4cnc(NCCN(C)C)nc34)c2)cc1C(F)(F)F [III-39]
2 nM	COc1ccc(NC(=O)c2ccc(F)c(Nc3ncnc4cnc(NCCN5CCOCC5)nc34)c2)cc1C(F)(F)F [III-40]
1 nM	COc1ccc(NC(=O)c2ccc(F)c(Nc3ncnc4cnc(N(C)C)nc34)c2)cc1C(F)(F)F [III-41]
64 nM	COCCN(C)c1ncc2ncnc(Nc3cc(C(=O)Nc4ccc(OC)c(C(F)(F)F)c4)ccc3C(F)(F)F)c2n1 [III-42]
972 nM	COc1ccc(NC(=O)c2ccc(C(F)(F)F)c(Nc3ncnc4cnc(N(C)CCN(C)C)nc34)c2)cc1C(F)(F)F [III-43]
> 2000 nM	COc1ccc(NC(=O)c2ccc(C(F)(F)F)c(Nc3ncnc4cnc(N5CCCCCC5)nc34)c2)cc1C(F)(F)F [III-44]
283 nM	COc1ccc(NC(=O)c2ccc(C(F)(F)F)c(Nc3ncnc4cnc(N5CCCN(C)CC5)nc34)c2)cc1C(F)(F)F [III-45]
451 nM	COc1ccc(NC(=O)c2ccc(C(F)(F)F)c(Nc3ncnc4cnc(N(C)CCN5CCCC5)nc34)c2)cc1C(F)(F)F [III-46]
95 nM	COc1ccc(NC(=O)c2ccc(C(F)(F)F)c(Nc3ncnc4cnc(N5CCN(C)CC5)nc34)c2)cc1C(F)(F)F [III-47]
> 1000 nM	COc1ccc(NC(=O)c2ccc(C(F)(F)F)c(Nc3ncnc4cnc(N5CCCCC5)nc34)c2)cc1C(F)(F)F [III-48]
587 nM	COc1ccc(NC(=O)c2ccc(C(F)(F)F)c(Nc3ncnc4cnc(NCCCN5CCOCC5)nc34)c2)cc1C(F)(F)F [III-49]
5 nM	COc1ccc(NC(=O)c2ccc(C(F)(F)F)c(Nc3ncnc4cnc(N5CCOCC5)nc34)c2)cc1C(F)(F)F [III-50]
381 nM	COc1ccc(NC(=O)c2ccc(C(F)(F)F)c(Nc3ncnc4cnc(N5CCCC5)nc34)c2)cc1C(F)(F)F [III-51]
2230 nM	COc1ccc(NC(=O)c2ccc(C(F)(F)F)c(Nc3ncnc4cnc(NCCN(C)C)nc34)c2)cc1C(F)(F)F [III-52]
318 nM	COc1ccc(NC(=O)c2ccc(C(F)(F)F)c(Nc3ncnc4cnc(NCCN5CCOCC5)nc34)c2)cc1C(F)(F)F [III-53]
543 nM	COc1ccc(NC(=O)c2ccc(C(F)(F)F)c(Nc3ncnc4cnc(N(C)C)nc34)c2)cc1C(F)(F)F [III-54]
> 150 nM	COCCN(C)c1ncc2ncnc(Nc3cc(C(=O)Nc4cc(C(C)(C)C)on4)ccc3C(F)(F)F)c2n1 [III-55]
1990 nM	CN(C)CCN(C)c1ncc2ncnc(Nc3cc(C(=O)Nc4cc(C(C)(C)C)on4)ccc3C(F)(F)F)c2n1 [III-56]
1830 nM	CC(C)(C)c1cc(NC(=O)c2ccc(C(F)(F)F)c(Nc3ncnc4cnc(N5CCCCCC5)nc34)c2)no1 [III-57]

IC50	Structure (SMILES)
88 nM	CN1CCCN(c2ncc3ncnc(Nc4cc(C(=O)Nc5cc(C(C)(C)C)on5)ccc4C(F)(F)F)c3n2)CC1 [III-58]
835 nM	CN(CCN1CCCC1)c1ncc2ncnc(Nc3cc(C(=O)Nc4cc(C(C)(C)C)on4)ccc3C(F)(F)F)c2n1 [III-59]
230 nM	CN1CCN(c2ncc3ncnc(Nc4cc(C(=O)Nc5cc(C(C)(C)C)on5)ccc4C(F)(F)F)c3n2)CC1 [III-60]
2240 nM	CC(C)(C)c1cc(NC(=O)c2ccc(C(F)(F)F)c(Nc3ncnc4cnc(N5CCCCC5)nc34)c2)no1 [III-61]
546 nM	CC(C)(C)c1cc(NC(=O)c2ccc(C(F)(F)F)c(Nc3ncnc4cnc(NCCCN5CCOCC5)nc34)c2)no1 [III-62]
13 nM	CC(C)(C)c1cc(NC(=O)c2ccc(C(F)(F)F)c(Nc3ncnc4cnc(N5CCOCC5)nc34)c2)no1 [III-63]
> 1000 nM	CC(C)(C)c1cc(NC(=O)c2ccc(C(F)(F)F)c(Nc3ncnc4cnc(N5CCCC5)nc34)c2)no1 [III-64]
4170 nM	CN(C)CCNc1ncc2ncnc(Nc3cc(C(=O)Nc4cc(C(C)(C)C)on4)ccc3C(F)(F)F)c2n1 [III-65]
1140 nM	CC(C)(C)c1cc(NC(=O)c2ccc(C(F)(F)F)c(Nc3ncnc4cnc(NCCN5CCOCC5)nc34)c2)no1 [III-66]
5 nM	COCCN(C)c1ncc2ncnc(Nc3cc(C(=O)Nc4cc(C(C)(C)C)on4)ccc3Cl)c2n1 [III-67]
8 nM	CC(C)(C)c1cc(NC(=O)c2ccc(Cl)c(Nc3ncnc4cnc(N5CCCCCC5)nc34)c2)no1 [III-68]
6 nM	CN(C)c1ncc2ncnc(Nc3cc(C(=O)Nc4cc(C(C)(C)C)on4)ccc3Cl)c2n1 [III-69]
4 nM	CN1CCCN(c2ncc3ncnc(Nc4cc(C(=O)Nc5cc(C(C)(C)C)on5)ccc4Cl)c3n2)CC1 [III-70]
3 nM	CN(CCN1CCCC1)c1ncc2ncnc(Nc3cc(C(=O)Nc4cc(C(C)(C)C)on4)ccc3Cl)c2n1 [III-71]
4 nM	CN1CCN(c2ncc3ncnc(Nc4cc(C(=O)Nc5cc(C(C)(C)C)on5)ccc4Cl)c3n2)CC1 [III-72]
4 nM	CC(C)(C)c1cc(NC(=O)c2ccc(Cl)c(Nc3ncnc4cnc(N5CCCCC5)nc34)c2)no1 [III-73]
1 nM	CC(C)(C)c1cc(NC(=O)c2ccc(Cl)c(Nc3ncnc4cnc(NCCCN5CCOCC5)nc34)c2)no1 [III-74]
1 nM	CC(C)(C)c1cc(NC(=O)c2ccc(Cl)c(Nc3ncnc4cnc(N5CCOCC5)nc34)c2)no1 [III-75]
11 nM	CC(C)(C)c1cc(NC(=O)c2ccc(Cl)c(Nc3ncnc4cnc(N5CCCC5)nc34)c2)no1 [III-76]
